Source: paper PMC7835231, “Human organoid biofilm model for assessing antibiofilm activity of novel agents” (NPJ Biofilms and Microbiomes, 2021)
“Also recorded” adds a separate entry of the source.

Key:
[1] = tested on: PAO1-lux biofilm; assay: One-day or three-day PAO1-lux biofilm on N/TERT epidermal skin model, CFU count and luminescence; type: cell-based, Pseudomonas aeruginosa; settings: for antibiofilm activity (CFU recovered) against pre-established PAO1-lux biofilm: peptide 0.1% topical, 4 h, 5 to 6 biological replicates, Kruskal–Wallis, Dunn's test versus control
Excerpt: (§1) Bacterial strains used in this study include USA300-LAC[56] (referred to as MRSA), and a luminescent MRSA strain SAP149[57] (referred to as MRSA-lux), Pseudomonas aeruginosa strain PAO1[58] and a luminescent strain of P. aeruginosa[59] (PAO1-lux). Bacteria strains used for confocal microscopy imaging include S. aureus USA300-LAC transformed with a pKK22 plasmid expressing a far-red fluorescent protein (MRSA-FarRed), as well as P. aeruginosa PAO1 (PAO1-mCherry), transformed with an mCherry expressing plasmid, pMCh-23[60]. All S. aureus strains were grown overnight in TSB containing 1% D-glucose at 37 °C with shaking at 180 rpm, sub-cultured to mid-exponential growth phase in TSB 1% D-glucose. Bacteria were harvested and resuspended in sterile PBS to a concentration of 2 × 10^8 CFU/ml before seeding onto skin surface. All P. aeruginosa strains were grown in LB under the same conditions as mentioned above, subcultured in LB medium, and resuspended in PBS at 2 × 10^8 CFU/ml before seeding.
(§2) Skin models were established using a modification of described methods. Briefly, 3 × 10^5 N/TERT cells in 400 μl DermaLife K Keratinocyte Complete Medium with LifeFactors (5 μg/ml rh Insulin LifeFactor, 6 mM L-Glutamine LifeFactor, 1 μM Epinephrine LifeFactor, 5 μg/ml Apo-Transferrin LifeFactor, 0.5 ng/ml rh TGF-α LifeFactor, 0.4% Extract P LifeFactor, 100 ng/ml Hydrocortisone Hemisuccinate LifeFactor) were seeded onto each filter insert (ThinCert™ Cell culture insert, Greiner bio-one, Kremsmünster, Austria) in a 12-well ThinCert™ Plate (Greiner bio-one) holding 4.1 ml/well DermaLife K Keratinocyte Complete Medium with LifeFactors below each filter. Medium was refreshed every second day until N/TERT cells reached confluency in 3-4 days. Culture media both on top and below the filter were then switched to DMEM/Ham’s F-12/CnT-Prime 3D Barrier Media in a 3:1:4 ratio supplemented with 0.1 μg/ml hydrocortisone, 0.125 μg/ml isoproterenol, 0.25 μg/ml bovine insulin, 26.5 pM selenious acid, 5 mM L-serine, 5 μM L-carnitine, 1.6 mg/ml BSA, 25 μM palmitic acid, 15 μM linoleic acid and 7 μM arachidonic acid. Medium on top of the filters was removed the next day to allow air-exposure, which induced differentiation and stratification of the epidermis. After 2–3 days, linoleic acid concentration was increased to 30 μM. The skin samples were cultured for 10 days at air–liquid interface at 37 °C and 7.3% CO2 with medium being refreshed every 2–3 days.
(§3) One million MRSA or PAO1, or luminescent MRSA-lux or PAO1-lux, or fluorescently-tagged MRSA-FarRed or PAO1-mCherry resuspended in PBS were seeded (5 μl of 2 × 10^8 CFU/ml) in the center of the skin model, cultured at 37 °C and 7.3% CO2 to allow the establishment of bacterial biofilms. One day or three days after inoculation, 30 μl of 0.1% (1 mg/ml) or 0.4% (4 mg/ml) DJK-5 peptide was added on top of the biofilm for 4 h. […] To visualize biofilms, skin samples seeded with luminescent bacteria were imaged using the ChemiDoc Imaging System (Bio-Rad). To quantify bacterial counts, skin samples, together with the filter inserts, were excised using a disposable scalpel (VWR, Radnor, PA), sonicated in 1.5 ml PBS, vortexed, serially diluted, and plated on LB agar plates. The cut-off of the Y-axis in each figure indicates the detection limit of CFU count while bars indicate the geometric mean of recovered CFU.

[2] = tested on: MRSA-lux (MRSA SAP149) biofilm; assay: One-day or three-day MRSA-lux biofilm on N/TERT epidermal skin model, CFU count and luminescence; type: cell-based, Staphylococcus aureus; settings: for antibiofilm activity (CFU recovered) against pre-established MRSA-lux biofilm: peptide 0.1% topical, 5 to 6 biological replicates, Kruskal–Wallis, Dunn's test versus control; for geometric mean of MRSA-lux bacteria recovered: untreated 1.3 × 10^8 CFU/skin, geometric mean of 3 to 9 biological replicates
Excerpt: as §1, §2, §3

[3] = tested on: MRSA (USA300-LAC) biofilm on burned skin; assay: MRSA USA300 thermal wounding skin model, colony count; type: cell-based, Staphylococcus aureus
Experimental: as §3
Thermal damage was created by burning 10-day air–liquid interface skins at 100 °C for 4 s with a digital soldering iron (FX888D, American Hakko Products, Inc., Santa Clarita, CA). The skin filter inserts were transferred to 12-well plates (Sigma-Aldrich) containing 800 μl/well fresh culture medium prior to bacterial infection. MRSA biofilm was established by seeding 2 × 10^6 CFU in 5 μl PBS on top of the thermal damaged skin and cultured at 37 °C and 5% CO2 for 24 h. […]

[4] = tested on: N/TERT epidermal skin; type: cell-based, human
Experimental: (§4) Thermal damage was created by burning 10-day air–liquid interface skins at 100 °C for 4 s with a digital soldering iron (FX888D, American Hakko Products, Inc., Santa Clarita, CA). The skin filter inserts were transferred to 12-well plates (Sigma-Aldrich) containing 800 μl/well fresh culture medium prior to bacterial infection. MRSA biofilm was established by seeding 2 × 10^6 CFU in 5 μl PBS on top of the thermal damaged skin and cultured at 37 °C and 5% CO2 for 24 h. DJK-5 peptide (30 μl of 0.4%) alone or in combination with 0.01%, 0.1%, or 0.4% 1002 was administered on top of the pre-formed biofilm. Skin samples were collected 24 h post peptide treatment for colony count.
(§5) At the time of colony quantification, culture supernatants below the skin filter inserts were harvested for measuring cytotoxicity by the lactate dehydrogenase assay using a Cytotoxicity Detection Kit (Roche Diagnostics, Basel, Switzerland), according to the manufacturer’s instructions. Untreated skin samples or skin samples treated with 5% Triton X-100 were used as negative (0% toxicity) or positive (100% toxicity) control, respectively. Culture supernatants were also used to measure IL-1β and IL-8 production using ELISA kits from eBioscience (San Diego, CA).

[5] = tested on: IL-1β production; assay: IL-1β ELISA of culture supernatant, MRSA-infected burned skin; type: cell-based, human
Experimental: as §4, §5

[6] = tested on: P. aeruginosa PAO1 biofilm; assay: One-day PAO1 biofilm on N/TERT epidermal skin model, CFU count; type: cell-based, Pseudomonas aeruginosa; settings: 1-day biofilm; 0.4% (120 µg) DJK-5, 4 h; control 1.3 × 10^8 CFU/skin; geometric mean of 5 to 8 biological replicates
Excerpt: as §1, with “All P. aeruginosa strains were grown in LB under the same conditions as mentioned above, subcultured in LB medium, and resuspended in PBS at 2 × 10^8 CFU/ml before seeding.” left out
One million MRSA or PAO1, or luminescent MRSA-lux or PAO1-lux, or fluorescently-tagged MRSA-FarRed or PAO1-mCherry resuspended in PBS were seeded (5 μl of 2 × 10^8 CFU/ml) in the center of the skin model, cultured at 37 °C and 7.3% CO2 to allow the establishment of bacterial biofilms. […] To quantify bacterial counts, skin samples, together with the filter inserts, were excised using a disposable scalpel (VWR, Radnor, PA), sonicated in 1.5 ml PBS, vortexed, serially diluted, and plated on LB agar plates. […]

[7] = tested on: N/TERT epidermal skin; type: cell-based, human; remark: listed apart in the source
Excerpt: as §5, with “CA). […]” for “CA).”
(§6) Supplementary Fig 4. Burned skin without infection and 2-day biofilm on skin without thermal damage had minimal changes in cytotoxicity and cytokine production compared to skin control without infection and thermal damage.
(§7) Thermally damaged epidermal skin was mock infected with PBS for 24 hours, followed by 24 hours treatment with 0.4% DJK-5 or water (a, b). The cytotoxicity (a) and IL-8 production (b) from culture supernatant beneath skin was determined. One day pre-established MRSA-lux and PAO1-lux skin biofilm was treated with vehicle control-water for 24 hours, changes in luminescence signal (c), bacteria load (d), skin cytotoxicity (e) and IL-8 level (f) was quantified. Error bars indicate mean with SD (n=3). One-way ANOVA, Dunnett’s multiple comparisons test (* P ≤ 0.05; ** P ≤ 0.01). […]

[8] = tested on: IL-8 production; type: cell-based, human
Excerpt: as §5, with “CA). […]” for “CA).”
as §6, §7

[9] = tested on: IL-8 production; assay: IL-8 ELISA of culture supernatant, MRSA-infected burned skin; type: cell-based, human; settings: burned skin with MRSA biofilm; 0.4% DJK-5, 24 h; ELISA of media below filter
Experimental: as §4, §5

## RRWIRVAVILRV [RI-1018, synthetic host defense peptide]
[1]; 1-day biofilm
  antibiofilm activity (CFU recovered) against pre-established PAO1-lux biofilm: comparable antibiofilm activity against MRSA-lux and PAO1-lux
[2]; 1-day biofilm, 4 h
  antibiofilm activity (CFU recovered) against pre-established MRSA-lux biofilm: comparable antibiofilm activity against MRSA-lux and PAO1-lux

## C/C(=C\C(=O)OCCCCCCCCC(=O)O)C[C@@H]1OC[C@H](C[C@@H]2O[C@H]2[C@@H](C)[C@H](C)O)[C@@H](O)[C@H]1O [mupirocin, reference compound]
[2]; 1-day biofilm, 1% mupirocin dissolved in 10% DMSO, topical, 4 h
  bacterial load of MRSA-lux in the biofilm: did not have appreciable impact; also recorded: almost inactive

## KRIRWVILWRQV [RI-1002, synthetic host defense peptide]
[1]; 1-day biofilm
  antibiofilm activity (CFU recovered) against pre-established PAO1-lux biofilm: comparable antibiofilm activity against MRSA-lux and PAO1-lux
[2]; 1-day biofilm, 4 h
  antibiofilm activity (CFU recovered) against pre-established MRSA-lux biofilm: comparable antibiofilm activity against MRSA-lux and PAO1-lux

## VQWRRIRVWVIR [DJK-6, synthetic host defense peptide]
[2]; 1-day biofilm, 4 h
  antibiofilm activity (CFU recovered) against pre-established MRSA-lux biofilm: superior effects in eradicating MRSA-lux biofilms; also recorded: superior activity in eradicating MRSA biofilm

## VQRWLIVWRIRK [compound 1002, Innate defense regulator peptide, a bactenecin derivative; anti-inflammatory synthetic HDP]
[3]; burned skin with MRSA biofilm, 0.4% 1002 alone, 24 h
  reduction in bacterial count compared to untreated biofilms: 17 fold
[4]
  cytotoxicity from MRSA infected burned skin: significant decreases
[1]; 1-day biofilm
  antibiofilm activity (CFU recovered) against pre-established PAO1-lux biofilm: All of the peptides except 1002 significantly reduced
[2]; 1-day biofilm, 4 h
  antibiofilm activity (CFU recovered) against pre-established MRSA-lux biofilm: All of the peptides except 1002 significantly reduced
[5]; 1002 treatment alone, 24 h, ELISA
  pro-inflammatory IL-1β release from MRSA infected burned skin: significant decreases

## VQWRAIRVRVIR [DJK-5, D-enantiomeric antibiofilm synthetic host defense peptide]
[3]; skin burned 100 °C 4 s, 24 h MRSA biofilm, 0.4% DJK-5 (120 μg) in PBS topical, control 7.8 × 10^8 CFU/skin, geometric mean
  bacterial load on burned skin: 3.2 × 10^5 CFU/skin
[1]; 1-day biofilm, 0.4% (120 µg) DJK-5, 4 h, control 8.9 × 10^7 CFU/skin, geometric mean of 5 to 8 biological replicates
  geometric mean of recovered PAO1-lux bacteria: 1.9 × 10^2 CFU/skin
[1]; 1-day biofilm, 0.4% DJK-5, 4 h
  luminescence of PAO1-lux biofilm: evident reduction in the luminescence signal
[1]; 1-day biofilm
  antibiofilm activity (CFU recovered) against pre-established PAO1-lux biofilm: comparable antibiofilm activity against MRSA-lux and PAO1-lux
[1]; 3-day PAO1-lux biofilm, 0.4% DJK-5, 4 h
  bacterial burden (colony count): significantly decreased bacterial burden
[1]; 3-day biofilm, 0.4% DJK-5, 4 h
  luminescence of PAO1-lux biofilm: wiped out luminescence signal
[6]
  geometric mean of recovered non-luminescent PAO1 bacteria: 4.9 × 10^3 CFU/skin
[2]; 1-day biofilm, 0.1% (30 μg total peptide), 4 h, ChemiDoc imaging
  luminescence of MRSA-lux biofilm: reduced the area of colonization
[2]; 1-day biofilm, 0.1% DJK-5 (30 μg) topical, 4 h
  geometric mean of MRSA-lux bacteria recovered: 1.6 × 10^6 CFU/skin
[2]; 1-day biofilm, 0.4% (120 μg), 4 h, ChemiDoc imaging
  luminescence of MRSA-lux biofilm: completely abolished the luminescence
[2]; 1-day biofilm, 0.4% DJK-5 (120 μg) topical, 4 h
  geometric mean of MRSA-lux bacteria recovered: 2.1 × 10^4 CFU/skin
[2]; 1-day biofilm, 4 h
  antibiofilm activity (CFU recovered) against pre-established MRSA-lux biofilm: comparable antibiofilm activity against MRSA-lux and PAO1-lux; also recorded: superior activity in eradicating MRSA biofilm
[2]; 3-day MRSA-lux biofilm, 0.4% DJK-5, within 4 h of treatment, versus untreated
  reduction of bacterial load: 4 log orders of magnitude
[2]; 3-day biofilm, 0.4% DJK-5, 4 h
  luminescence of MRSA-lux biofilm: successfully wiped out the bacterial luminescence
[5]; burned skin with MRSA biofilm, 0.4% DJK-5, 24 h, ELISA of media below filter
  IL-1β production: significantly suppressed
[7]
  increase in observed cytotoxicity compared to control skin: ~ 5%
[8]
  IL-8 production compared to control skin: slightly increased IL-8 production
[9]
  IL-8 production: significantly suppressed

## VRLIVAVRIWRR [compound 1018, synthetic host defense peptide]
[2]; 1-day biofilm, 4 h
  antibiofilm activity (CFU recovered) against pre-established MRSA-lux biofilm: superior effects in eradicating MRSA-lux biofilms; also recorded: superior activity in eradicating MRSA biofilm
